{"source": "patent US20230129812A1", "about": "“COMPOSITIONS AND METHODS FOR TREATING PULMONARY HYPERTENSION” (Acceleron Pharma Inc., priority 2020, published 2023)", "key": {"[1]": {"test_system": "rat model of pulmonary arterial hypertension (PAH), monocrotaline-induced", "assay": "Monocrotaline (MCT) rat model of pulmonary arterial hypertension", "type": "in vivo, Sprague Dawley rats", "settings": "MCT rats; for improvement in body weight: 28 days; for improvement in body weight / decrease of right heart hypertrophy / decrease of lung weight / reduction of elevated PAP: compared to monocrotaline treated rats (vehicle); for decrease of right heart hypertrophy / decrease of lung weight / reduction of elevated PAP: day 28; for decrease of right heart hypertrophy: RV/LV+S; for smooth muscle hypertrophy of pulmonary arterioles, average histopathological score: 0 (normal), 1 (minimal), 2 (mild), 3 (moderate), 4 (marked); for pulmonary arterioles completely muscularized / pulmonary arterioles non-muscularized / pulmonary arterioles partially muscularized: αSMA/elastin staining, 100 arterioles per animal", "method": "The effects of an ActRIIA-mFc fusion protein (ActRIIA-mFc homodimer as described in Example 1), an ALK4-Fc-ActRIIB-Fc heterodimer (as described in Examples 12 and 13), and sildenafil (a phosphodiesterase-5 inhibitor approved for the treatment of PAH) were examined in a rat model of pulmonary arterial hypertension (PAH). In this model, Sprague Dawley rats received a […] injection of monocrotaline (MCT) to induce PAH 24 hours prior to start of therapy.\nRats were separated into different treatment groups (10 mice per group): 1) treatment with MCT (60 mg/kg administered i.p. as a single dose at day 1 of study) and Tris buffered saline (i.p. as 1 ml/kg, every three days) (vehicle treatment group), 2) treatment with an ActRIIA-mFc polypeptide (10 mg/kg administered i.p. every three days) and MCT (60 mg/kg administered i.p. as a single dose at day 1 of study), 3) treatment with an ALK4-Fc:ActRIIB-Fc heterodimer (10 mg/kg administered i.p. every three days) and MCT (60 mg/kg administered i.p. as a single dose at day 1 of study), 4) treatment with sildenafil (30 mg/kg administered orally twice daily) and MCT (60 mg/kg administered i.p. as a single dose at day 1 of study), and 5) control rats (Tris buffered saline administered i.p. as 1 ml/kg, every three days). Rats were treated for 28 days. Body weights were recorded prior to first dose on Day 1 and then weekly throughout the study.\n(§1) On day 28, rats were anesthetized by an intraperitoneal injection of ketamine/xylazine (80/10 mg/kg). An incision was made in the neck, and a jugular vein was isolated and ligated anteriorly. A fluid-filled pressure catheter was introduced into the right jugular vein to measure pulmonary artery pressure (PAP). Another incision was made in the inguinal region, and femoral artery was isolated and ligated anteriorly. A Millar pressure catheter was introduced into a femoral artery to measure systolic arterial pressure, diastolic pressure, and heart rate. Mean arterial pressure and right PAP were monitored using the Notocord HEM (Croissy sur Seine, Frnace) v3.5 data capture system for approximately 5-10 minutes until stable measurements were obtained. During the measurements, rats were maintained at approximately 37° C. on a heating pad and body temperature was monitored throughout the procedure with a rectal temperature probe. At the conclusion of the procedure, rats were euthanized, and the hearts and lungs were removed. The entire heart was weighed. Next, the atria were removed and the left ventricle with septum (LV+S) was separated from the right ventricle (RV). The ventricles were weighed separately. Hypertrophy was assessed, in part, by calculating RV/LV+S. The lungs were also weighed.\n(§2) Similar trends were observed on vessel muscularity based on histopathologic scoring. After staining tissue samples to detect αSMA/elastin, 100 pulmonary arterioles, between 10 μm and 50 m in size, per animal were categorized as non-muscularized, partially muscularized, or completely muscularized. Pulmonary arterioles from vehicle treated rats were determined to be 62.3% completely muscularized, 36.4% partially muscularized, and 1.4% non-muscularized. […] Histopathological scoring of smooth muscle hypertrophy of pulmonary arterioles were also recorded as follows: 0 (normal), 1 (minimal), 2 (mild), 3 (moderate), or 4 (marked)."}, "[2]": {"test_system": "Sugen Hypoxia model of PAH", "assay": "Sugen Hypoxia rat model of PAH (semaxanib/hypoxia)", "type": "in vivo", "settings": "Sugen Hypoxia rats; for decrease of right heart hypertrophy / reduction of mean pulmonary arterial pressure: day 28, compared to vehicle treated animals; for smooth muscle hypertrophy of pulmonary arterioles, average histopathological score: 0 (normal), 1 (minimal), 2 (mild), 3 (moderate), 4 (marked); for pulmonary arterioles completely muscularized / pulmonary arterioles non-muscularized / pulmonary arterioles partially muscularized: αSMA/elastin staining, 100 arterioles per animal", "method": "The effects of an ActRIIA-mFc fusion protein (ActRIIA-mFc homodimer as described in Example 1 and sildenafil (a phosphodiesterase-5 inhibitor approved for the treatment of PAH) were further examined the Sugen Hypoxia model of PAH. In this model, rats receive daily doses of semaxanib and are placed in a low oxygen environment (approximately 13% oxygen) to induce PAH 24 hours prior to start of therapy.\nRats were separated into different treatment groups (10 mice per group): 1) treatment with semaxanib (200 mg/kg administered s.c. as a single dose daily)/hypoxia and Tris buffered saline (administered i.p. as 1 ml/kg, every three days) (vehicle treatment group), 2) treatment with an ActRIIA-mFc polypeptide (10 mg/kg administered i.p. every three days) and semaxanib (200 mg/kg administered s.c. as a single dose daily)/hypoxia, 3) treatment with sildenafil (30 mg/kg administered orally twice daily) and semaxanib (200 mg/kg administered s.c. as a single dose daily)/hypoxia, and 4) control rats (Tris buffered saline administered i.p. as 1 ml/kg, every three days). Rats were treated for 28 days. Body weights were recorded prior to first dose on Day 1 and then weekly throughout the study.\nas §1\nas §2, with “[…]” for “μm”, “72.5%” for “62.3%”, “27.4%” for “36.4%”, “0.1%” for “1.4%”"}, "activin B": {"target": "T1, activin B (Homo sapiens, UniProt P09529)", "T1 sequence (P09529 293-407)": "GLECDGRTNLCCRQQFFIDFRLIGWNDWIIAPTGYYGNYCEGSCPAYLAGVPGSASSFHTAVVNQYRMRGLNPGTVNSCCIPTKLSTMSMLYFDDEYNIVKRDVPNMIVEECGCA", "assay": "Biacore ligand affinity of ActRIIB-hFc forms, steady-state affinity fit", "type": "binding", "method": "(§3) Affinities of several ligands for ActRIIB(25-131)-hFc and its full-length counterpart ActRIIB(20-134)-hFc were evaluated in vitro with a Biacore™ instrument, and the results are summarized in Table 8 below. Kd values were obtained by steady-state affinity fit due to very rapid association and dissociation of the complex, which prevented accurate determination of kon and koff. ActRIIB(25-131)-hFc bound, for example, activin A, activin B, and GDF11 with high affinity.\n(§4) The affinity of ActRIIB variants and other ActRIIB-hFc proteins for several ligands was evaluated in vitro with a Biacore™ instrument. Kd values were obtained by steady-state affinity fit due to the very rapid association and dissociation of the complex, which prevented accurate determination of kon and koff."}, "GDF11": {"target": "T2, GDF11 (Homo sapiens, UniProt O95390)", "T2 sequence (O95390 299-407)": "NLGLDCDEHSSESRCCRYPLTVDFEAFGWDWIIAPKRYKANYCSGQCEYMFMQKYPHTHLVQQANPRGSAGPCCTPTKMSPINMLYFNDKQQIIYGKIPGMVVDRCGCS", "assay": "Biacore ligand affinity of ActRIIB-hFc forms, steady-state affinity fit", "type": "binding", "method": "as §3, §4"}, "activin A": {"target": "T3, activin A (Homo sapiens, UniProt P08476)", "T3 sequence (P08476 311-426)": "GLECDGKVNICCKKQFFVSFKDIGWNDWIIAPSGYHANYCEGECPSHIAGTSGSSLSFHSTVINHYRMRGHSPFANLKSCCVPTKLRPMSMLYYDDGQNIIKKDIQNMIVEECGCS", "assay": "Biacore ligand affinity of ActRIIB-hFc forms, steady-state affinity fit", "type": "binding", "method": "as §3, §4"}, "[3]": {"test_system": "pGL3(CAGA)12 reporter gene expression in A-204 cells", "assay": "A-204 reporter gene assay, stimulation by factors without inhibitors", "type": "cell-based, human", "settings": "in the absence of any inhibitors", "from_the_text": "An A-204 reporter gene assay was used to evaluate the effects of ActRIIB-Fc proteins and ActRIIB variant Fc fusion polypeptides on signaling by GDF-11 and activin A. Cell line: human rhabdomyosarcoma (derived from muscle). Reporter vector: pGL3(CAGA)12 (described in Dennler et al, 1998, EMBO 17: 3091-3100). The CAGA12 motif is present in TGF-beta responsive genes (e.g., PAI-1 gene), so this vector is of general use for factors signaling through SMADs.\nDay 1: Split A-204 cells into 48-well plate.\nDay 2: A-204 cells transfected with 10 ug pGL3(CAGA)12 or pGL3(CAGA)12(10 ug)+pRLCMV (1 pg) and Fugene.\nDay 3: Add factors (diluted into medium+0.1% BSA). Inhibitors need to be preincubated with factors for 1 hr before adding to cells. Six hrs later, cells were rinsed with PBS and lysed.\nThis is followed by a luciferase assay."}}}
{"compound": "CCCc1nn(C)c2c(=O)[nH]c(-c3cc(S(=O)(=O)N4CCN(C)CC4)ccc3OCC)nc12", "note": "[sildenafil, reference compound]", "values": [{"measurement": "improvement in body weight", "setting": "[1]", "result": "did not have any improvement in body weight"}, {"measurement": "decrease of right heart hypertrophy", "setting": "[1]", "result": 18.5, "unit": "%"}, {"measurement": "decrease of lung weight", "setting": "[1]", "result": 10, "unit": "%"}, {"measurement": "reduction of elevated PAP", "setting": "[1]", "result": 30, "unit": "%"}, {"measurement": "smooth muscle hypertrophy of pulmonary arterioles, average histopathological score", "setting": "[1]", "result": 3}, {"measurement": "pulmonary arterioles completely muscularized", "setting": "[1]", "result": 57.9, "unit": "%"}, {"measurement": "pulmonary arterioles non-muscularized", "setting": "[1]", "result": 0.9, "unit": "%"}, {"measurement": "pulmonary arterioles partially muscularized", "setting": "[1]", "result": 41.6, "unit": "%"}, {"measurement": "decrease of right heart hypertrophy", "setting": "[2]", "result": 10, "unit": "%"}, {"measurement": "reduction of mean pulmonary arterial pressure", "setting": "[2]", "result": 22.4, "unit": "%"}, {"measurement": "smooth muscle hypertrophy of pulmonary arterioles, average histopathological score", "setting": "[2]", "result": 3}, {"measurement": "pulmonary arterioles completely muscularized", "setting": "[2]", "result": 67.4, "unit": "%"}, {"measurement": "pulmonary arterioles non-muscularized", "setting": "[2]", "result": 1.0, "unit": "%"}, {"measurement": "pulmonary arterioles partially muscularized", "setting": "[2]", "result": 31.6, "unit": "%"}]}
{"compound": "ActRIIA-mFc: extracellular domain of human ActRIIa fused to a mouse Fc domain with a minimal linker; homodimer", "values": [{"measurement": "improvement in body weight", "setting": "[1]", "result": "did not show improvement in body weight"}, {"measurement": "decrease of right heart hypertrophy", "setting": "[1]", "result": 47.1, "unit": "%"}, {"measurement": "decrease of lung weight", "setting": "[1]", "result": 18.4, "unit": "%"}, {"measurement": "reduction of elevated PAP", "setting": "[1]", "result": 68, "unit": "%"}, {"measurement": "smooth muscle hypertrophy of pulmonary arterioles, average histopathological score", "setting": "[1]", "result": 1.6}, {"measurement": "pulmonary arterioles completely muscularized", "setting": "[1]", "result": 25.8, "unit": "%"}, {"measurement": "pulmonary arterioles non-muscularized", "setting": "[1]", "result": 7.3, "unit": "%"}, {"measurement": "pulmonary arterioles partially muscularized", "setting": "[1]", "result": 66.9, "unit": "%"}, {"measurement": "decrease of right heart hypertrophy", "setting": "[2]", "result": 53.5, "unit": "%"}, {"measurement": "reduction of mean pulmonary arterial pressure", "setting": "[2]", "result": 51.3, "unit": "%"}, {"measurement": "smooth muscle hypertrophy of pulmonary arterioles, average histopathological score", "setting": "[2]", "result": 1.4}, {"measurement": "pulmonary arterioles completely muscularized", "setting": "[2]", "result": 29.3, "unit": "%"}, {"measurement": "pulmonary arterioles non-muscularized", "setting": "[2]", "result": 1.4, "unit": "%"}, {"measurement": "pulmonary arterioles partially muscularized", "setting": "[2]", "result": 69.3, "unit": "%"}]}
{"compound": "ActRIIB(25-131)-hFc: human ActRIIB extracellular domain with N- and C-terminal truncations (residues 25-131) fused to human Fc via three glycines", "values": [{"measurement": "activin B binding", "setting": "activin B; Biacore", "result": "high affinity"}, {"measurement": "Kd", "setting": "activin B; Table 12, Kd by steady-state affinity fit, read-out: Activin B (Kd e−11)", "result": 0.012, "unit": "nM"}, {"measurement": "GDF11 binding", "setting": "GDF11; Biacore", "result": "high affinity"}, {"measurement": "Kd", "setting": "GDF11; Table 12, Kd by steady-state affinity fit, read-out: GDF11 (Kd e−11)", "result": 0.031, "unit": "nM"}, {"measurement": "activin A binding", "setting": "activin A; Biacore", "result": "high affinity"}, {"measurement": "Kd", "setting": "activin A; Table 12, Kd by steady-state affinity fit, read-out: Activin A (Kd e−11)", "result": 0.018, "unit": "nM"}]}
{"compound": "GDF-11: TGF-beta superfamily ligand added as factor in the A-204 reporter gene assay", "values": [{"measurement": "ED50", "setting": "[3]", "result": "~1.5", "unit": "ng/mL"}, {"measurement": "stimulation of reporter gene expression", "setting": "[3]", "result": 16, "unit": "fold"}]}
{"compound": "activin A: TGF-beta superfamily ligand added as factor in the A-204 reporter gene assay", "values": [{"measurement": "ED50", "setting": "[3]", "result": "~2", "unit": "ng/mL"}, {"measurement": "stimulation of reporter gene expression", "setting": "[3]", "result": 10, "unit": "fold"}]}
